Holding throughout (format): cell-based
In assay [1] the test system is rat thoracic aorta. Nature of the assay: Vasorelaxing effect on phenylephrine-induced contraction of rat thoracic aortic rings.
For assay [2], the system named is rat thoracic aorta. The experiment in a line: Relaxation of phenylephrine-contracted rat aortic rings in the presence of acetylcholine. Particulars: 0.3 μM phenylephrine, acetylcholine 3 μM present. On the procedure: Male Sprague-Dawley rats, weighing 250-350 g (Laboratory Animal Science Center of the National Yang-Ming University, Taipei, Taiwan), were used in this study. The rats were allowed to acclimate in environmentally controlled quarters (20-22° C. with 12:12 hr light-dark cycles). Thoracic aorta was excised carefully and fixed isometrically in organ chambers (15 mL) containing a 37° C. modified Krebs' solution (120 mM NaCl, 4.5 mM KCl, 2.5 mM CaCl2, 1 mM MgSO4, 27 mM NaHCO3, 1 mM KH2PO4, 10 mM glucose, pH 7.4) through which a mixture of 95% O2-5% CO2 was continuously supplied. The aortic rings of 3-4 mm were equilibrated under passive tension of 1.8 g for 60 min. After equilibration, the aortic rings were stabilized with a near maximal contraction induced by 0.3 μM phenylephrine. When the rings achieved a stable level of contraction, 3 μM acetylcholine was added to the bath, in which the aorta rings were soaked, to assess endothelial integrity. Intimas were gently frayed with a cotton swab to disrupt the endothelium.
The relaxation effect of TAA on rat thoracic aorta in the presence of acetylcholine was also investigated. Vascular contraction in rat aortic rings was induced by 0.3 μM phenylephrine as described above. Acetylcholine (3 μM) was added to the bath, in which the aortic rings were soaked, to assess endothelial integrity. […]

Assay [3] relates to rat thoracic aorta. Nature of the assay: Combined vasorelaxing effects of TAA with GTN or SNP: phenylephrine-induced tension in rat thoracic aorta. Particulars: 0.1 μM agent alone; control vehicle 2.1 g. As to the method: The rats were allowed to acclimate in environmentally controlled quarters (20-22° C. with 12:12 hr light-dark cycles). […] After equilibration, the aortic rings were stabilized with a near maximal contraction induced by 0.3 μM phenylephrine. When the rings achieved a stable level of contraction, 3 μM acetylcholine was added to the bath, in which the aorta rings were soaked, to assess endothelial integrity. Intimas were gently frayed with a cotton swab to disrupt the endothelium.

Consider `O=C(O)/C=C(\CC(=O)O)C(=O)O` [TAA, trans-aconitic acid], for which, in the assay with rat thoracic aorta [1] (TAA 100 μM, contraction induced by 10 μM phenylephrine, n=16), the maximum relaxation induced is on record as 40%. Besides, in the assay on rat thoracic aorta [1] (TAA 100 μM, phenylephrine precontracted aortic rings), the “vasorelaxing effect in rat thoracic aorta” value is listed as “significant vasorelaxing effect”. Also, in the assay with rat thoracic aorta [1] (endothelium-intact preparations), the “relaxation in phenylephrine-induced contraction” value is listed as “concentration-dependent relaxation”. In the assay on rat thoracic aorta [2] (TAA 100 μM, n=16), the increase of relaxation was 55%. Moreover, the relaxation levels result in the assay on rat thoracic aorta [2] (TAA 0.1-100 μM) is given as “significant increase of relaxation levels”.
`O=[N+]([O-])OCC(CO[N+](=O)[O-])O[N+](=O)[O-]` [GTN, glyceryltrinitrate]: in the assay with rat thoracic aorta [3], the phenylephrine-induced tension is on record as 1.3 g.

Values taken from US9012512B2, “Aqueous extracts from monocotyledon plants and their use in cardioprotection” (priority 2008, dated 2015).
